Measurements taken from patent US11351125B2, “Poly(n-butyl cyanoacrylate) nanoparticle with dual modifications, preparation method and use thereof” (Xuanwu Hospital of Capital Medical University, priority 2016, dated 2022).

Columns and labels:
[1] = Pharmacokinetics of docetaxel after intravenous administration in rats; format: in vivo, Wistar rats; details: rat, HPLC
Experimental: 6- to 8-week old male Wistar rats were subjected to jugular vein catheterization. […] The rats were administered with a docetaxel solution (a free drug) and docetaxel-loaded PBCA nanoparticles with dual modifications by PEG20000-cholesterol, respectively. […] After treatment, the content of docetaxel in the blood was determined by HPLC.

[2] = system: 4T1 cells (mouse breast cancer cells); assay: Inhibition of tumor cell proliferation in vitro, MTT; format: cell-based; details: 0.0001 nmol/ml (as docetaxel), 24 h
Experimental: (2) Method: MTT method was used to determine the proliferation state of tumor cells. The particular steps were as followed: 4T1 cells (mouse breast cancer cells) in the logarithmic growth phase were digested and counted, and then seeded to a 96-well plate at a density of 5×10^4/well. […] After further incubation for 24 h and 48 h, respectively, the old medium was pipetted off, and a medium containing 0.5 mg/ml MTT was added to each well. After further incubation for 4 h, the medium was pipetted off, and washing with PBS was performed twice. DMSO (200 μl) was added to dissolve the formazan crystal, and shaking was performed in dark for 10 min; and then the OD value of each well at 490 nm was determined by ELISA instrument. The OD value of the cells incubated without the addition of drug was used as control (100%), and the cell viability for each drug groups were calculated, so as to study the proliferation state of tumor cells, wherein 5 parallel wells were set for each group.

[3] = Brain tissue distribution of docetaxel in rats; format: in vivo, Wistar rats; details: rat, tail vein injection, HPLC
Experimental: The rats were subjected to tail vein injection with a docetaxel solution (a free drug), and docetaxel-loaded PBCA nanoparticles with dual modifications by PEG20000-cholesterol, respectively. The rats were killed at different time points after administration, respectively, and the brain tissues were taken, washed with physiological saline and weighed. After treatment, the content of docetaxel in the brain tissue was determined by HPLC.

[4] = Brain tissue distribution of coumarin-6 in rats, Experiment 1 (time course); format: in vivo, Wistar rats; details: rat, tail vein injection
Experimental: (1) Method: 6- to 8-week old male Wistar rats were randomly divided into 3 groups, with 21 rats for each group. The rats were subjected to tail vein injection with an equimolar amount of a coumarin-6 solution (a free drug), coumarin-6-loaded nanoparticles with single modification by cholesterol and PBCA nanoparticles with dual modifications by PEG20000-cholesterol as prepared in Example 1, respectively. The rats were killed at different time points (15 min, 30 min, 1 h, 2 h, 4 h, 8 h, 12 h) after administration, brain tissues were taken, and the content of coumarin-6 in brain was determined.

[5] = rat
Experimental: (2) Method: 6- to 8-week old male Wistar rats were randomly divided into 3 groups, with 6 rats for each group. The rats were anesthetized by intraperitoneal injection of a pentobarbital solution (40 mg/kg), and jugular vein catheterization was performed. […] After treatment, the content of coumarin-6 in the blood was determined.

sustained release in vivo (docetaxel detectable in blood) [1] [h]	docetaxel in the brain after intravenous administration [3]	content of coumarin-6 in the brain tissue ([4]; 15 min-12 h) [ng/g brain tissue]	coumarin-6 in the brain tissue 8 h after administration ([4]; 8 h)	release time in vivo (coumarin-6 detectable in blood) [5] [h]	AUC0-t ([5]; in vivo, iv) [µg·min/mL]	AUC0-∞ ([5]; in vivo, iv) [µg·min/mL]	C0 ([5]; in vivo, iv) [ng/mL]	CL ([5]; in vivo, iv) [mL/min]	Vd, λz ([5]; in vivo, iv) [L]	t1/2, λz ([5]; in vivo, iv) [h]	Compound	cell viability of the tumor cells [2]
< 2	could not be detected in the brain										CC(=O)O[C@@]12CO[C@@H]1C[C@H](O)[C@@]1(C)C(=O)[C@H](O)C3=C(C)[C@@H](OC(=O)[C@H](O)[C@@H](NC(=O)OC(C)(C)C)c4ccccc4)C[C@@](O)([C@@H](OC(=O)c4ccccc4)[C@H]21)C3(C)C [docetaxel]	no significant change
		≤ 50	no coumarin-6 was detected	≤ 4	15.8 ± 2.4	16.0 ± 2.3	828.4 ± 139.0	6.4 ± 0.9	0.6 ± 0.3	1 ± 0.4	coumarin-6 [Free drug]	
